# What was measured:
# Experiment in all cases: relative viability (nuclei count vs DMSO), 5 days (fraction); higher = more cells survive
# UMC-11 = system: UMC-11
# How it was run: (§1)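 Values are medians from duplicate plates. Each reflects relative viability, defined as the nuclei count of treated wells over that of vehicle wells. Lung cancer cell lines in 1536-well plates were pin-tool dosed one day after seeding with one drug alone or with a fixed anchor-drug dose plus five library-drug doses (not always all listed) in √10 steps, then fixed, stained and imaged at 4× after 5 days.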
# SK-LU-1 = system: SK-LU-1
# How it was run: as §1
# NCI-H358 = system: NCI-H358
# How it was run: as §1
# A-427 = system: A-427
# How it was run: as §1
# LU99A = system: LU99A
# How it was run: as §1
# NCI-H460 = system: NCI-H460
# How it was run: as §1
# COR-L 105 = system: COR-L 105
# How it was run: as §1
# NCI-H1915 = system: NCI-H1915
# How it was run: as §1
# EPLC-272H = system: EPLC-272H
# How it was run: as §1
# SW 900 = system: SW 900
# How it was run: as §1
# HOP-62 = system: HOP-62
# How it was run: as §1
# NCI-H1666 = system: NCI-H1666
# How it was run: as §1
# HCC-78 = system: HCC-78
# How it was run: as §1
# NCI-H1944 = system: NCI-H1944
# How it was run: as §1
# NCI-H2009 = system: NCI-H2009
# How it was run: as §1
# HCC-366 = system: HCC-366
# How it was run: as §1
# LC-2-ad = system: LC-2-ad
# How it was run: as §1
# LXF-289 = system: LXF-289
# How it was run: as §1
# NCI-H2085 = system: NCI-H2085
# How it was run: as §1
# NCI-H1793 = system: NCI-H1793
# How it was run: as §1
# NCI-H2170 = system: NCI-H2170
# How it was run: as §1
# NCI-H1792 = system: NCI-H1792
# How it was run: as §1
smiles,measurement,setting,value
O=c1cc(-c2cccc3c2Sc2ccccc2S3)oc(N2CCOCC2)c1 + Cc1nc(Nc2ncc(C(=O)Nc3c(C)cccc3Cl)s2)cc(N2CCN(CCO)CC2)n1 [Dasatinib] (partner 0.075 µM),relative viability,UMC-11; first compound 0.08 µM,0.537
same,relative viability,UMC-11; first compound 0.253 µM,0.591
same,relative viability,UMC-11; first compound 0.8 µM,0.535
same,relative viability,UMC-11; first compound 2.53 µM,0.433
same,relative viability,UMC-11; first compound 8 µM,0.752
same,relative viability,SK-LU-1; first compound 0.08 µM,0.156
same,relative viability,SK-LU-1; first compound 0.253 µM,0.17
same,relative viability,SK-LU-1; first compound 0.8 µM,0.205
same,relative viability,SK-LU-1; first compound 2.53 µM,0.18
same,relative viability,SK-LU-1; first compound 8 µM,0.182
same,relative viability,NCI-H358; first compound 0.08 µM,0.145
same,relative viability,NCI-H358; first compound 0.253 µM,0.163
same,relative viability,NCI-H358; first compound 0.8 µM,0.148
same,relative viability,NCI-H358; first compound 2.53 µM,0.152
same,relative viability,NCI-H358; first compound 8 µM,0.189
same,relative viability,A-427; first compound 0.08 µM,0.695
same,relative viability,A-427; first compound 0.253 µM,0.871
same,relative viability,A-427; first compound 0.8 µM,0.744
same,relative viability,A-427; first compound 8 µM,0.884
same,relative viability,LU99A; first compound 0.08 µM,0.759
same,relative viability,LU99A; first compound 0.253 µM,0.61
same,relative viability,LU99A; first compound 0.8 µM,0.587
same,relative viability,LU99A; first compound 2.53 µM,0.754
same,relative viability,LU99A; first compound 8 µM,0.631
same,relative viability,NCI-H460; first compound 0.08 µM,0.454
same,relative viability,NCI-H460; first compound 0.253 µM,0.619
same,relative viability,NCI-H460; first compound 0.8 µM,0.436
same,relative viability,NCI-H460; first compound 2.53 µM,0.408
same,relative viability,NCI-H460; first compound 8 µM,0.55
same,relative viability,COR-L 105; first compound 0.08 µM,0.311
same,relative viability,COR-L 105; first compound 0.253 µM,0.311
same,relative viability,COR-L 105; first compound 0.8 µM,0.326
same,relative viability,COR-L 105; first compound 2.53 µM,0.356
same,relative viability,COR-L 105; first compound 8 µM,0.31
same,relative viability,NCI-H1915; first compound 0.08 µM,0.296
same,relative viability,NCI-H1915; first compound 0.253 µM,0.351
same,relative viability,NCI-H1915; first compound 0.8 µM,0.309
same,relative viability,NCI-H1915; first compound 2.53 µM,0.306
same,relative viability,NCI-H1915; first compound 8 µM,0.337
same,relative viability,EPLC-272H; first compound 0.08 µM,0.331
same,relative viability,EPLC-272H; first compound 0.253 µM,0.397
same,relative viability,EPLC-272H; first compound 0.8 µM,0.399
same,relative viability,EPLC-272H; first compound 2.53 µM,0.306
same,relative viability,EPLC-272H; first compound 8 µM,0.347
same,relative viability,SW 900; first compound 0.08 µM,0.503
same,relative viability,SW 900; first compound 0.253 µM,0.919
same,relative viability,SW 900; first compound 0.8 µM,0.352
same,relative viability,SW 900; first compound 2.53 µM,0.44
same,relative viability,SW 900; first compound 8 µM,0.538
same,relative viability,HOP-62; first compound 0.08 µM,0.615
same,relative viability,HOP-62; first compound 0.253 µM,0.835
same,relative viability,HOP-62; first compound 0.8 µM,0.679
same,relative viability,HOP-62; first compound 2.53 µM,0.562
same,relative viability,HOP-62; first compound 8 µM,0.543
same,relative viability,NCI-H1666; first compound 0.08 µM,0.787
same,relative viability,NCI-H1666; first compound 0.253 µM,0.781
same,relative viability,NCI-H1666; first compound 0.8 µM,0.851
same,relative viability,NCI-H1666; first compound 2.53 µM,0.768
same,relative viability,NCI-H1666; first compound 8 µM,0.789
same,relative viability,HCC-78; first compound 0.08 µM,0.395
same,relative viability,HCC-78; first compound 0.253 µM,0.553
same,relative viability,HCC-78; first compound 0.8 µM,0.284
same,relative viability,HCC-78; first compound 2.53 µM,0.329
same,relative viability,HCC-78; first compound 8 µM,0.389
same,relative viability,NCI-H1944; first compound 0.08 µM,0.21
same,relative viability,NCI-H1944; first compound 0.253 µM,0.223
same,relative viability,NCI-H1944; first compound 0.8 µM,0.207
same,relative viability,NCI-H1944; first compound 2.53 µM,0.176
same,relative viability,NCI-H1944; first compound 8 µM,0.24
same,relative viability,NCI-H2009; first compound 0.08 µM,0.298
same,relative viability,NCI-H2009; first compound 0.253 µM,0.301
same,relative viability,NCI-H2009; first compound 0.8 µM,0.29
same,relative viability,NCI-H2009; first compound 2.53 µM,0.235
same,relative viability,NCI-H2009; first compound 8 µM,0.254
same,relative viability,HCC-366; first compound 0.08 µM,0.633
same,relative viability,HCC-366; first compound 0.253 µM,0.718
same,relative viability,HCC-366; first compound 0.8 µM,0.547
same,relative viability,HCC-366; first compound 2.53 µM,0.666
same,relative viability,HCC-366; first compound 8 µM,0.767
same,relative viability,LC-2-ad; first compound 0.08 µM,0.648
same,relative viability,LC-2-ad; first compound 0.253 µM,0.584
same,relative viability,LC-2-ad; first compound 0.8 µM,0.532
same,relative viability,LC-2-ad; first compound 2.53 µM,0.405
same,relative viability,LC-2-ad; first compound 8 µM,0.461
same,relative viability,LXF-289; first compound 0.08 µM,0.219
same,relative viability,LXF-289; first compound 0.253 µM,0.21
same,relative viability,LXF-289; first compound 0.8 µM,0.226
same,relative viability,LXF-289; first compound 2.53 µM,0.239
same,relative viability,LXF-289; first compound 8 µM,0.224
same,relative viability,NCI-H2085; first compound 0.08 µM,0.222
same,relative viability,NCI-H2085; first compound 0.253 µM,0.238
same,relative viability,NCI-H2085; first compound 0.8 µM,0.225
same,relative viability,NCI-H2085; first compound 2.53 µM,0.241
same,relative viability,NCI-H2085; first compound 8 µM,0.236
same,relative viability,NCI-H1793; first compound 0.08 µM,0.379
same,relative viability,NCI-H1793; first compound 0.253 µM,0.441
same,relative viability,NCI-H1793; first compound 0.8 µM,0.335
same,relative viability,NCI-H1793; first compound 2.53 µM,0.379
same,relative viability,NCI-H1793; first compound 8 µM,0.386
same,relative viability,NCI-H2170; first compound 0.08 µM,0.494
same,relative viability,NCI-H2170; first compound 0.253 µM,0.571
same,relative viability,NCI-H2170; first compound 0.8 µM,0.611
same,relative viability,NCI-H2170; first compound 2.53 µM,0.477
same,relative viability,NCI-H2170; first compound 8 µM,0.564
same,relative viability,NCI-H1792; first compound 0.08 µM,0.791
same,relative viability,NCI-H1792; first compound 0.253 µM,1.01
same,relative viability,NCI-H1792; first compound 0.8 µM,0.617
same,relative viability,NCI-H1792; first compound 2.53 µM,0.728
same,relative viability,NCI-H1792; first compound 8 µM,1.04
